Laboratory results from patent US11690922B2, “Lipid compound as well as lipid carrier, nucleic acid lipid nanoparticle composition and pharmaceutical preparation containing same” (Purecodon (Hong Kong) Biopharma Ltd., priority 2021, dated 2023).

Key:
[1] = Particle size, PDI, Zeta and entrapment efficiency of each LNP@mRNA; assay type: physicochemical; settings: for Entrapment efficiency (%) / PDI / Particle size (nm) / Zeta (mV): luciferase mRNA; for particle size of the LNP@mRNA (in words): LNP@mRNA with cholesterol, DSPC, PEG-DMG (Example 25), compared among compounds 1-8
Protocol: Compounds 1-8 were respectively dissolved in ethanol together with cholesterol, DSPC, PEG-DMG at a molar ratio of 50:38.5:10:1.5, luciferase mRNA was dissolved in a 50 mM citric acid buffered saline solution with a pH of 4.0, a volume ratio of the two solutions was 1:3, two phases were rapidly mixed by using microfluidics and a buffer environment was replaced into PBS with a pH of 7.4 by using dialysis or a tangential flow, so as to remove ethanol, and eight LNP@mRNAs were respectively prepared.
Thus, it can be seen that the entrapment efficiency to the nucleic acid drug by the compound provided by the present invention is high, and, using this compound as a carrier can improve the in-vivo delivery efficiency of the nucleic acid drug.
Compounds 13, and 14 and cholesterol, DOPC, and PEG-DMG were dissolved in ethanol at a molar ratio of 50:38.5:10:1.5, luciferase mRNA was dissolved in a 50 mM citric acid buffered saline solution with a pH of 4.0, a volume ratio of the two solutions was 1:3, two phases were mixed rapidly by using microfluidics and a buffer environment was replaced into PBS with a pH of 7.4 by using dialysis or a tangential flow, so as to remove ethanol, and two LNP@mRNAs were respectively prepared.

[2] = tested on: mice; test: Fluorescence intensity and organ distribution in mice 6 hours after injection of luciferase LNP@mRNA; assay type: in vivo; settings: mouse, after 6 hours; for organ distribution of mRNA expression: intramuscular injection
Protocol: LNP@mRNAs prepared were respectively injected into a mouse body via a caudal vein or muscle, and after 6 hours, the fluorescence intensity and organ distribution in mice were tested. […] Therefore, a lipid compound with a specific structure can be chosen as a lipid carrier based on an organ in which the nucleic acid drug needs to be enriched.
LNP@mRNAs prepared were respectively injected into a mouse body via a caudal vein or muscle, and after 6 hours, the fluorescence intensity and organ distribution in mice were tested.

[3] = Zeta electric potentials of LNP@mRNA under different pHs; assay type: physicochemical; settings: Example 26 LNP (cholesterol, DOPC, PEG-DMG), FIG. 7
[4] = LNP@mRNA of compound:cholesterol:DSPC:PEG-DMG 50:38.5:10:1.5 molar, PBS pH 7.4 (Example 25)
[5] = LNP@mRNA of compound:cholesterol:DOPC:PEG-DMG 50:38.5:10:1.5 molar, PBS pH 7.4 (Example 26)

## CCCCCCCCC(CCCCCC)C(=O)OCCCCOC(=O)CCN(CCO)CCC(=O)OCCCCOC(=O)C(CCCCCC)CCCCCCCC (stereo not drawn) [Compound 1]
[1]; [4]
  Entrapment efficiency (%): 87%
  PDI: 0.06
  Particle size (nm): 95 nm
  Zeta (mV): −9 mV
[1]
  particle size of the LNP@mRNA (in words): small

## CCCCCCCCC(CCCCCC)C(=O)OCCCCOC(=O)CCN(CCCn1ccnc1)CCC(=O)OCCCCOC(=O)C(CCCCCC)CCCCCCCC (stereo not drawn) [Compound 14]
[1]; [5]
  Entrapment efficiency (%): 87%
  PDI: 0.07
  Particle size (nm): 122 nm
  Zeta (mV): −11 mV
[2]; Example 26 LNP (DOPC), FIG. 5 and 6
  organ distribution of mRNA expression: mainly expressed in spleen

## CCCCCCCCC(CCCCCC)C(=O)OCCCCOC(=O)CCN(CCCCCO)CCC(=O)OCCCCOC(=O)C(CCCCCC)CCCCCCCC (stereo not drawn) [Compound 4]
[1]; [4]
  Entrapment efficiency (%): 82%
  PDI: 0.09
  Particle size (nm): 77 nm
  Zeta (mV): −12 mV
[1]
  particle size of the LNP@mRNA (in words): small

## CCCCCCC(CCCC)C(=O)OCCCCOC(=O)CCN(CCCn1ccnc1)CCC(=O)OCCCCOC(=O)C(CCCC)CCCCCC (stereo not drawn) [Compound 13]
[1]; [5]
  Entrapment efficiency (%): 85%
  PDI: 0.03
  Particle size (nm): 156 nm
  Zeta (mV): −19 mV
[2]; Example 26 LNP (DOPC), comparison of compounds 13 and 14, FIG. 4
  maximum fluorescence of intramuscular injection of LNP@mRNA (effect): better
[3]; pH about 2
  Zeta electric potential of the LNP@mRNA: strong positive electricity
[3]; pH close to 5
  Zeta electric potential of the LNP@mRNA: electric neutrality
[3]; pH greater than 8
  Zeta electric potential of the LNP@mRNA: strong electronegativity

## CCCCCCC(CCCC)C(=O)OCCCCOC(=O)CCN(CCO)CCC(=O)OCCCCOC(=O)C(CCCC)CCCCCC (stereo not drawn) [Compound 5]
[1]; [4]
  Entrapment efficiency (%): 80%
  PDI: 0.10
  Particle size (nm): 114 nm
  Zeta (mV): −13 mV

## CCCCCCC(CCCC)C(=O)OCCCCOC(=O)CCN(CCCO)CCC(=O)OCCCCOC(=O)C(CCCC)CCCCCC (stereo not drawn) [Compound 6]
[1]; [4]
  Entrapment efficiency (%): 72%
  PDI: 0.06
  Particle size (nm): 125 nm
  Zeta (mV): −12 mV

## CCCCCCC(CCCC)C(=O)OCCCCOC(=O)CCN(CCCCCO)CCC(=O)OCCCCOC(=O)C(CCCC)CCCCCC (stereo not drawn) [Compound 8]
[1]; [4]
  Entrapment efficiency (%): 82%
  PDI: 0.07
  Particle size (nm): 124 nm
  Zeta (mV): −12 mV

## CCCCCCCCC(CCCCCC)C(=O)OCCCCOC(=O)CCN(CCCO)CCC(=O)OCCCCOC(=O)C(CCCCCC)CCCCCCCC (stereo not drawn) [Compound 2]
[1]; [4]
  Entrapment efficiency (%): 86%
  PDI: 0.07
  Particle size (nm): 68 nm
  Zeta (mV): −14 mV
[1]
  particle size of the LNP@mRNA (in words): small

## CCCCCCC(CCCC)C(=O)OCCCCOC(=O)CCN(CCCCO)CCC(=O)OCCCCOC(=O)C(CCCC)CCCCCC (stereo not drawn) [Compound 7]
[1]; [4]
  Entrapment efficiency (%): 82%
  PDI: 0.05
  Particle size (nm): 116 nm
  Zeta (mV): −18 mV
[2]; Example 25 LNP (DSPC), comparison among compounds 1-8, FIG. 1
  maximum fluorescence of intramuscular injection of LNP@mRNA (effect): better
[2]; Example 25 LNP (DSPC), FIG. 2 and 3
  organ distribution of mRNA expression: manly expressed in spleen

## CCCCCCCCC(CCCCCC)C(=O)OCCCCOC(=O)CCN(CCCCO)CCC(=O)OCCCCOC(=O)C(CCCCCC)CCCCCCCC (stereo not drawn) [Compound 3]
[1]; [4]
  Entrapment efficiency (%): 86%
  PDI: 0.07
  Particle size (nm): 76 nm
  Zeta (mV): −15 mV
[1]
  particle size of the LNP@mRNA (in words): small
